Patent US20230263900A1, “DENDRIMER-DRUG CONJUGATE” (priority 2020, published 2023)
Where two headings read alike, the source gives them in different places.

Key:
[1] = Release of Remdesivir in PBS buffer (Release Method 1); type: physicochemical; details: PBS buffer with 10% v/v DMSO, pH 7.4, 37° C.
Method: Release Method 1: An accurately weighed amount of the Remdesivir-dendrimer (10 mg) construct was dissolved in pH 7.4 PBS buffer:DMSO (9:1 v/v) and the volume made up to 20.0 mL in a volumetric flask to give a 0.5 mg/mL stock solution. The stock solution was aliquoted into several 2 mL screw-cap vials, the caps fitted and the vials heated at 37° C. The aliquoted solutions were analyzed at different time points by HPLC (HPLC Method 3). The concentration of Remdesivir RHa-1 was calculated by comparing the area under the peak associated with Remdesivir RHa-1 to a standard curve in MeCN:DMSO (9:1, v/v). The percentage of Remdesivir RHa-1 released is the percentage of available Remdesivir RHa-1 based on the loading of the construct as determined by ^1H NMR analysis (API Loading Method 1).
The extent to which the Remdesivir RHa-1 was released over time in PBS buffer (with 10% v/v DMSO) (pH 7.4) at 37° C. was determined for 5 constructs, RHa-17, RHa-15, RHa-11, RHa-5 and RHa-3 (Release Method 1) over 120 hours.
Trace amounts of other components were also observed (presumed to be degradation products of Remdesivir RHa-1). The area under the resolvable (separated) peaks associated with these degradants was also added to the peak area associated with released Remdesivir RHa-1.
BHALys [Lys]2[Lys]4[Lys]8[Lys]16[Lys]32[(α-NH-6N-TDA-Remdesivir)32(ε-NH-COPEG2000)32] RHa-5 contained 1.77% free Remdesivir RHa-1 at t=0 min. The value of released Remdesivir RHa-1 shown in FIG. 3 has been adjusted to take this into account.

[2] = test system: Coronavirus infection; details: cited from earlier work
[3] = cited from earlier work
[4] = Solubility studies; type: physicochemical
Method: The solubility of BHALys[Lys]2[Lys]4[Lys]8[Lys]16[Lys]32[(α-NH-3′ O-Glu-Remdesivir)32(ε-NH-COPEG2000)32] RHa-3 in water was determined to be ≥200 mg/mL (or ≥43.6 mg/mL Remdesivir RHa-1) by adding water (250 μL) to 50.0 mg of BHALys [Lys]2[Lys]4[Lys]8[Lys]16[Lys]32[(α-NH-3′ O-Glu-Remdesivir)32(ε-NH-COPEG2000)32] and swirling briefly. After 2 min, the resulting solution was visually inspected for particulates and found to be a clear solution (see FIG. 2). Solutions shown are 40 mg/ml Remdesivir equivalents (equivalent to 200 mg/ml of conjugate RHa-3).
The solubility of BHALys[Lys]2[Lys]4[Lys]8[Lys]16[Lys]32[(α-NH-6N-TDA-Remdesivir)32(ε-NH-COPEG2000)32] RHa-5, in EtOH:Water (1:9 v/v) was determined to be ≥543 mg/mL (or ≥107 mg/mL Remdesivir RHa-1) by adding water EtOH:Water (1:9 v/v, 400 μL) to 380 mg of RHa-5. The mixture was swirled briefly and left to stand at rt. After 1.5 h the resulting solution (volume recorded=700 μL) was visually inspected for particulates and found to be a clear solution.
The solubility of BHALys[Lys]2[Lys]4[Lys]8[Lys]16[Lys]32[(α-NH-6N-TDA-Remdesivir)32(ε-NH-COPEG1000)32] RHa-17 in EtOH:Water (1:9 v/v) was determined to be ≥354* mg/mL (or ≥85 mg/mL Remdesivir RHa-1) by adding EtOH:Water (1:9 v/v, 958 μL) portionwise to 525 mg of RHa-17, over a period of 1.5 h with intermittent swirling. The resulting solution was visually inspected for particulates and found to be a clear solution.
(*Total volume not recorded. Assumes 1 mg construct contributes to 1 μL of final solution (i.e., total volume of final solution=1483 μL)).

[5] = Viscosity measurements (Viscosity Method 1); type: physicochemical; details: 50 mg/mL Remdesivir equivalents in EtOH: Water (1:9 v/v)
Method: Viscosities were measured on Anton Paar ViscoQC300 Viscometer using CC-12 cup.
Viscosity Method 1: A reference standard solution (Standard Type: RT500, CAS No. 63148-62-9, Paragon Scientific Ltd) was first recorded and found to be within the range of reported value (at 20° C.: found 556.6 cP, theoretical 551.0 cP; at 25° C.: found 503.3 cP, theoretical 498.6 cP). Accurately weighed quantities of respective conjugates were dissolved in EtOH:Water […] to make a 50 mg/mL Remdesivir equivalent solution (total volume 2.30-2.40 mL) and the viscosity of the solution was recorded at 20° C. and 25° C.
Viscosities of 2 formulations containing either RHa-5 or RHa-17 in EtOH: Water (1:9 v/v) were measured using Viscosity Method 1

With “BHALys[Lys]2[Lys]4[Lys]8[Lys]16[Lys]32[(α-NH-3′O-TDA-Remdesivir)32(ε-NH-COPEG2000)32] [RHa-15]” the “Approx. Time taken for 50% Remdesivir release” value [1] was roughly 9 h.

In the case of `CCC(CC)COC(=O)[C@H](C)N[P@](=O)(OC[C@H]1O[C@@](C#N)(c2ccc3c(N)ncnn23)[C@H](O)[C@@H]1O)Oc1ccccc1` [RDV, 2-Ethylbutyl (2S)-2-{[(S)-{[(2R,3S,4R,5R)-5-(4-aminopyrrolo[2,1-f][1,2,4]triazin-7-yl)-5-cyano-3,4-dihydroxytetrahydrofuran-2-yl]methoxy}(phenoxy)phosphoryl]amino}propanoate], the “Clinical recovery, figure in parentheses (share of patients)” value ([2]; 5-Day RDV, n = 200, Day 14) is given as “(65)”, the “Clinical recovery, patients” value ([2]; 5-Day RDV, n = 200, Day 14) is given as 129 and the “Death, figure in parentheses (share of patients)” value ([2]; 5-Day RDV, n = 200, Day 14) is given as “(8)”. The “Death, patients” value ([2]; 5-Day RDV, n = 200, Day 14) was 16, the “Discharge, figure in parentheses (share of patients)” value ([2]; 5-Day RDV, n = 200, Day 14) was “(60)” and the “Discharge, patients” value ([2]; 5-Day RDV, n = 200, Day 14) was 120. For the same compound, the “≥ 2-point improvement in ordinal scale, figure in parentheses (share of patients)” value ([2]; 5-Day RDV, n = 200, Day 14) was “(65)”, the “≥ 2-point improvement in ordinal scale, patients” value ([2]; 5-Day RDV, n = 200, Day 14) was 129 and the “AE leading to discontinuation, figure in parentheses (share of patients)” value ([2]; 5-Day RDV, n = 200) was “(5)”. The “AE leading to discontinuation, patients” value ([2]; 5-Day RDV, n = 200) was 9, the “Any adverse event (AE), figure in parentheses (share of patients)” value ([2]; 5-Day RDV, n = 200) was “(71)” and the “Any adverse event (AE), patients” value ([2]; 5-Day RDV, n = 200) was 141. The “Grade ≥ 3 study drug-related AE, figure in parentheses (share of patients)” value ([2]; 5-Day RDV, n = 200) was “(4)”, the “Grade ≥ 3 study drug-related AE, patients” value ([2]; 5-Day RDV, n = 200) was 8 and the “Study drug-related serious adverse event (SAE), figure in parentheses (share of patients)” value ([2]; 5-Day RDV, n = 200) was “(2)”. The “Study drug-related serious adverse event (SAE), patients” value ([2]; 5-Day RDV, n = 200) was 3, the “Time to clinical improvement for 50% of patients” value ([2]; 5-day treatment group) was 10 days and the “Clinical recovery, figure in parentheses (share of patients)” value ([2]; 10-Day RDV, n = 197, Day 14) was “(54)”. The “Clinical recovery, patients” value ([2]; 10-Day RDV, n = 197, Day 14) was 106, the “Death, figure in parentheses (share of patients)” value ([2]; 10-Day RDV, n = 197, Day 14) was “(11)” and the “Death, patients” value ([2]; 10-Day RDV, n = 197, Day 14) was 21. The “Discharge, figure in parentheses (share of patients)” value ([2]; 10-Day RDV, n = 197, Day 14) was “(52)”, the “Discharge, patients” value ([2]; 10-Day RDV, n = 197, Day 14) was 103 and the “≥ 2-point improvement in ordinal scale, figure in parentheses (share of patients)” value ([2]; 10-Day RDV, n = 197, Day 14) was “(54)”. The “≥ 2-point improvement in ordinal scale, patients” value ([2]; 10-Day RDV, n = 197, Day 14) was 107, the “AE leading to discontinuation, figure in parentheses (share of patients)” value ([2]; 10-Day RDV, n = 197) was “(10)” and the “AE leading to discontinuation, patients” value ([2]; 10-Day RDV, n = 197) was 20. For the same compound, the “Any adverse event (AE), figure in parentheses (share of patients)” value ([2]; 10-Day RDV, n = 197) was “(74)”, the “Any adverse event (AE), patients” value ([2]; 10-Day RDV, n = 197) was 145 and the “Grade ≥ 3 study drug-related AE, figure in parentheses (share of patients)” value ([2]; 10-Day RDV, n = 197) was “(5)”. For the same compound, the “Grade ≥ 3 study drug-related AE, patients” value ([2]; 10-Day RDV, n = 197) was 10, the “Study drug-related serious adverse event (SAE), figure in parentheses (share of patients)” value ([2]; 10-Day RDV, n = 197) was “(2)” and the “Study drug-related serious adverse event (SAE), patients” value ([2]; 10-Day RDV, n = 197) was 4. The “Time to clinical improvement for 50% of patients” value ([2]; 10-day treatment group) was 11 days, the Cmax ([3]; after 200 mg dose of Remdesivir) was 5440 ng/mL and the Median terminal half-life ([3]; human, in vivo) was “approximately 1 hours”. For the same compound, the Plasma half-life ([3]; in vivo, iv) was “approximately 1 hour” and the “Appearance in water at 40 mg/mL” value ([4]; water, 40 mg/mL, FIG. 2) was “suspension”.

With “BHALys[Lys]2[Lys]4[Lys]8[Lys]16[Lys]32[(α-NH-6N-TDA-Remdesivir)32(ε-NH-COPEG2000)32] [RHa-5]” the “Viscosity at 20° C.” value [5] was 144.2 cP, the “Viscosity at 25° C.” value [5] was 100.6 cP and the “Solubility in EtOH:Water (1:9 v/v)” value ([4]; EtOH:Water (1:9 v/v), conjugate mass, rt) was no less than 543 mg/mL. For the same compound, the “Solubility in EtOH:Water (1:9 v/v), as Remdesivir RHa-1” value ([4]; EtOH:Water (1:9 v/v), expressed as Remdesivir RHa-1) was no less than 107 mg/mL and the “Approx. Time taken for 50% Remdesivir release” value [1] was roughly 58 h.
